7 compounds from ChEMBL document CHEMBL1201862, “PubChem BioAssay data set” (2004) can be followed below.

Each structure is given as a SMILES string.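 These data come from cells grown in 96-well plates and exposed to compound for 48 hours at five concentrations. GI50 = concentration required for 50% inhibition of growth.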 The source made the active and inactive calls. Rule as the data show it: active = GI50 up to about 1.1 µM and inactive = higher. Some results are limits rather than exact numbers.

Holding throughout (test): growth of human tumour cells (NCI), 48 h
The test system of assay [1] is 786-0.
Assay [2] has as its system CCRF-CEM.
Assay [3] deals with COLO 205.
For assay [4], the system named is EKVX.
Assay [5] deals with HCT-116.
Assay [6] has as its system HCT-15.
In assay [7] the test system is HT-29.
Assay [8] deals with MDA-MB-231.
Assay [9] deals with Malme-3M.
Assay [10] relates to NCI-H460.
For assay [11], the system named is NCI/ADR-RES.
In assay [12] the test system is OVCAR-5.
Assay [13] has as its system OVCAR-8.
For assay [14], the system named is RPMI-8226.
In assay [15] the test system is RXF 393.
Assay [16] relates to SK-MEL-2.
Assay [17] relates to SK-MEL-5.
Assay [18] has as its system SNB-19.
Assay [19] has as its system TK-10.
In assay [20] the test system is UACC-257.

As for `O=C(NCCCCCN1CCC2(CCCCC2)CC1)C(C1CCCCC1)C1CCCCC1`, the GI50 in assay [1] was 5.08 µM (inactive); in [2], 2.99 µM (inactive); in assay [3], 1.45 µM (inactive); in assay [4] it was 3.6 µM (inactive); in assay [5], 4.44 µM (inactive); in assay [6], 3.08 µM. Moreover, the GI50 in [7] is 1.97 µM (inactive); in assay [8], 5.11 µM (inactive); in assay [9], 1.75 µM (inactive); in [10], 2.45 µM (inactive); in assay [11] it was 3.18 µM (inactive); in [12], 6.22 µM (inactive). Besides, the GI50 was 2.72 µM (inactive) in assay [13]; 2.19 µM (inactive) in assay [14]; 4.24 µM (inactive) in assay [15]; 2.21 µM (inactive) in [16]; 1.61 µM (inactive) in assay [17]; 5.73 µM (inactive) in assay [18]. The GI50 is 4.71 µM (inactive) in assay [19] and 1.82 µM (inactive) in [20].
`CCOC(=O)/C=C1\Nc2ccccc2C12CCc1c([nH]c3ccccc13)C2C(=O)OCC` (stereo not given): the GI50 was 57.8 µM (inactive) in assay [1]; 29 µM (inactive) in [2]; 4.66 µM (inactive) in assay [3]; 18.8 µM (inactive) in assay [4]; 17.6 µM (inactive) in [5]; 46.5 µM in assay [6]. Further, the GI50 in [7] was 9.08 µM (inactive); in assay [8], 18 µM (inactive); in assay [9], 10.3 µM (inactive); in assay [10] it was 12 µM (inactive); in [11], 11.8 µM (inactive); in assay [12] it was > 100 µM (inactive). Further, the GI50 in [13] is 88.7 µM (inactive); in [14] it was 7.52 µM (inactive); in assay [15], > 100 µM (inactive); in [16], 45.5 µM (inactive); in [17] it was 21.8 µM (inactive); in assay [18] it was > 100 µM (inactive). For the same compound, the GI50 was 23.8 µM (inactive) in assay [19] and 24 µM (inactive) in [20].
On to `COc1cc(C(c2ccc3c(c2)OCO3)C2SCCCS2)cc(OC)c1OC` (stereo not given), for which the GI50 was 2.74 µM (inactive) in [1]; 1.49 µM (inactive) in [2]; 1.63 µM (inactive) in [3]; 2.79 µM (inactive) in assay [4]; 2.59 µM (inactive) in assay [5]; 2.02 µM in assay [6]. In addition, the GI50 in assay [7] was 1.89 µM (inactive); in assay [8] it was 2.3 µM (inactive); in assay [9], 3.36 µM (inactive); in [10], 1.58 µM (inactive); in [11], 2.15 µM (inactive); in [12], 4.81 µM (inactive). Also, the GI50 was 4.71 µM (inactive) in [13]; 3.27 µM (inactive) in [14]; 1.35 µM (inactive) in [15]; 77.4 µM (inactive) in assay [16]; 3.34 µM (inactive) in [17]; 1.86 µM (inactive) in [18]. The GI50 in assay [19] is 5.2 µM (inactive); in [20], 6.08 µM (inactive).
`COC(=O)c1nc2c(C)c(O)c(O)c([C@H](C)CCC=C(C)C)c2o1`: the GI50 in assay [1] was 18.6 µM (inactive); in assay [2], 2.64 µM (inactive); in assay [3], 16.2 µM (inactive); in [4], 29.7 µM (inactive); in [5], 8.34 µM (inactive); in assay [6] it was 14 µM. Also, the GI50 in assay [7] is 19.5 µM (inactive); in assay [8], 45.1 µM (inactive); in assay [9], 26.7 µM (inactive); in assay [10] it was 46.5 µM (inactive); in assay [11] it was 25.2 µM (inactive); in assay [12] it was 58.6 µM (inactive). The GI50 in assay [13] was 38.5 µM (inactive); in assay [14], 13 µM (inactive); in assay [15] it was 21.4 µM (inactive); in assay [16], 20.5 µM (inactive); in assay [17] it was 13 µM (inactive); in [18], 38.5 µM (inactive). Moreover, the GI50 in assay [19] was 39 µM (inactive); in assay [20] it was 28.4 µM (inactive).
`CN1CCN(C)C12C=c1ccccc1=CC21CC1`: the GI50 in [1] is 54 µM (inactive); in assay [2], 24.2 µM (inactive); in assay [3] it was 15.7 µM (inactive); in assay [4], > 95.9 µM (inactive); in assay [5], 25.1 µM (inactive); in assay [6], 32.8 µM. Moreover, the GI50 in assay [7] was 17.2 µM (inactive); in assay [8], 38.4 µM (inactive); in [9] it was 28.5 µM (inactive); in [10], 30.8 µM (inactive); in [11], > 68.2 µM (inactive); in assay [12], > 100 µM (inactive). The GI50 in assay [13] was 53.5 µM (inactive); in assay [14] it was 30 µM (inactive); in assay [15], 55.5 µM (inactive); in assay [16], 24.3 µM (inactive); in assay [17] it was 23.2 µM (inactive); in assay [18] it was > 83.8 µM (inactive). Further, the figures for the GI50 in assay [19] and in assay [20] were 66.7 µM (inactive) and 23.7 µM (inactive), respectively.
`Cc1cc[n+]2c(c1)-c1cc(C)cc[n+]1CC2`: the GI50 was > 100 µM (inactive) in assay [1]; > 22.7 µM (inactive) in assay [2]; 22.6 µM (inactive) in assay [3]; > 100 µM (inactive) in [4]; > 100 µM (inactive) in assay [5]; > 100 µM in [6]. The GI50 in assay [7] was 34.7 µM (inactive); in [8], > 71.1 µM (inactive); in assay [9], 99.5 µM (inactive); in [10] it was > 100 µM (inactive); in assay [11], > 100 µM (inactive); in [12] it was > 100 µM (inactive). For the same compound, the GI50 in assay [13] is > 66.5 µM (inactive); in [14], > 100 µM (inactive); in assay [15] it was > 100 µM (inactive); in assay [16], > 100 µM (inactive); in [17], > 100 µM (inactive); in assay [18], > 100 µM (inactive). In addition, the GI50 in [19] and in assay [20] was > 100 µM (inactive) each time.
Regarding `COc1cc(/C=C/c2ccc(OC)c(OC)c2)cc(OC)c1` [(E)-3,4,3',5'-TETRAMETHOXYSTILBENE], the GI50 is 20.7 µM (inactive) in [1]; 76.9 µM (inactive) in [2]; 19.2 µM (inactive) in [3]; 39.9 µM (inactive) in assay [4]; 23.1 µM (inactive) in assay [5]; 7.08 µM in assay [6]. In addition, the GI50 in assay [7] was 19.3 µM (inactive); in assay [8], 22.9 µM (inactive); in assay [9], 49.2 µM (inactive); in assay [10], 22.2 µM (inactive); in [11], 20.9 µM (inactive); in [12] it was 39.8 µM (inactive). In addition, the GI50 in [13] is 39.6 µM (inactive); in assay [14] it was 83.4 µM (inactive); in assay [15], 19.6 µM (inactive); in assay [16], 32 µM (inactive); in [17], 19 µM (inactive); in [18], 84.9 µM (inactive). In addition, the values for the GI50 in assay [19] and in assay [20] were 56.1 µM (inactive) and 46.3 µM (inactive), respectively.
